According to US12297194B2, “N2-phenylpyrimidine-2,4-diamine compounds, and preparation methods and methods of use thereof” (BRIDGE BIOTHERAPEUTICS, INC., priority 2021, dated 2025):

How the values were obtained:
Format in all cases: cell-based, murine
Ba/F3 EGFR Wild-type = Ba/F3 EGFR Wild-type (Homo sapiens, UniProt P00533); assay: CellTiter-Glo cell viability, Ba/F3 EGFR wild-type cells; conditions: 72 hours, read-out: Ba/F3 EGFR mutant cell (IC50, nM) WT
In short: (§1)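 Ba/F3 cells expressing wild-type or mutant EGFR were seeded at 2500 cells/well and dosed 24 h later with compound at 0–2000 nM (10 points). After 72 h, viability was read by CellTiter-Glo luminescence, and IC50 values came from curve fitting.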

[1] = molecular target: Ba/F3 EGFR Del19/C797S mutants (Homo sapiens, UniProt P00533, C797S, cells depend on it, form not given); assay: CellTiter-Glo cell viability, Ba/F3 EGFR Del19/C797S cells; conditions: 72 hours, read-out: Ba/F3 EGFR mutant cell (IC50, nM) D/C
Chain of Ba/F3 EGFR Del19/C797S mutants (P00533 with tags, fused parts or gaps DEL746-750/C797S, form open): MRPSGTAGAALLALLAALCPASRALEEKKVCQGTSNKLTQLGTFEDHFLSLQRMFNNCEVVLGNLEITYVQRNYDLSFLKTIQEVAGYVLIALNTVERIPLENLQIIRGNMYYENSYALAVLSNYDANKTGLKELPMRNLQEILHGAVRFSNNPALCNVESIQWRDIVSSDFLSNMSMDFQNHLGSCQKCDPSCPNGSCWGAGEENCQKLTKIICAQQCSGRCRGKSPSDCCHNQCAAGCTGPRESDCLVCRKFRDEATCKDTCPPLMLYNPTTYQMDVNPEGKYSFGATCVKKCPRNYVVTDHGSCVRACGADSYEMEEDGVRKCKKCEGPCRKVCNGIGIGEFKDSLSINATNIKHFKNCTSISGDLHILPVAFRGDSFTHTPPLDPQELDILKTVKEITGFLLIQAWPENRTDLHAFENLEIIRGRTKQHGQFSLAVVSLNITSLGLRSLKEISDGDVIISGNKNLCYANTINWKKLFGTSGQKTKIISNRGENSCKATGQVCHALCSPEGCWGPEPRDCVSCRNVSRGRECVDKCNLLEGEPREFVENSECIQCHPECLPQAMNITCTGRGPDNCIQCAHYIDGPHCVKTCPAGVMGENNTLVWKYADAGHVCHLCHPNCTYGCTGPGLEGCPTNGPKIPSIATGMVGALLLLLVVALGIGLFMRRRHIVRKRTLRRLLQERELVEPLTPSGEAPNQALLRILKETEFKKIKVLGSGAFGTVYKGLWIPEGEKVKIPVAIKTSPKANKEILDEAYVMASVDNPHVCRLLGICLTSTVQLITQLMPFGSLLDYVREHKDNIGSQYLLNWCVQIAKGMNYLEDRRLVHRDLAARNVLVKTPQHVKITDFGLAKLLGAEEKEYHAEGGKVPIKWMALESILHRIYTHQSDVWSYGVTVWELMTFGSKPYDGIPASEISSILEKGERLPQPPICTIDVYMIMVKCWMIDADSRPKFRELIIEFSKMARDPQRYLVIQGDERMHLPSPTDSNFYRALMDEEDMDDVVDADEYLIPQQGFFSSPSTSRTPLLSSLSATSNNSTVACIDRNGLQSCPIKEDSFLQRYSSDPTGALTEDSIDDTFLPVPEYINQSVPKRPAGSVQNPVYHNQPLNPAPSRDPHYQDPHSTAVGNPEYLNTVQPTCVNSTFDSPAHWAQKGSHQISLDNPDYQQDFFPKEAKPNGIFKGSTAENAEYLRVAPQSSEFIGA
In short: as §1

[2] = molecular target: Ba/F3 EGFR L858R/C797S mutants (Homo sapiens, UniProt P00533, C797S/L858R, cells depend on it); assay: CellTiter-Glo cell viability, Ba/F3 EGFR L858R/C797S cells; conditions: 72 hours, read-out: Ba/F3 EGFR mutant cell (IC50, nM) L/C
Chain of Ba/F3 EGFR L858R/C797S mutants (P00533 whole entry C797S/L858R): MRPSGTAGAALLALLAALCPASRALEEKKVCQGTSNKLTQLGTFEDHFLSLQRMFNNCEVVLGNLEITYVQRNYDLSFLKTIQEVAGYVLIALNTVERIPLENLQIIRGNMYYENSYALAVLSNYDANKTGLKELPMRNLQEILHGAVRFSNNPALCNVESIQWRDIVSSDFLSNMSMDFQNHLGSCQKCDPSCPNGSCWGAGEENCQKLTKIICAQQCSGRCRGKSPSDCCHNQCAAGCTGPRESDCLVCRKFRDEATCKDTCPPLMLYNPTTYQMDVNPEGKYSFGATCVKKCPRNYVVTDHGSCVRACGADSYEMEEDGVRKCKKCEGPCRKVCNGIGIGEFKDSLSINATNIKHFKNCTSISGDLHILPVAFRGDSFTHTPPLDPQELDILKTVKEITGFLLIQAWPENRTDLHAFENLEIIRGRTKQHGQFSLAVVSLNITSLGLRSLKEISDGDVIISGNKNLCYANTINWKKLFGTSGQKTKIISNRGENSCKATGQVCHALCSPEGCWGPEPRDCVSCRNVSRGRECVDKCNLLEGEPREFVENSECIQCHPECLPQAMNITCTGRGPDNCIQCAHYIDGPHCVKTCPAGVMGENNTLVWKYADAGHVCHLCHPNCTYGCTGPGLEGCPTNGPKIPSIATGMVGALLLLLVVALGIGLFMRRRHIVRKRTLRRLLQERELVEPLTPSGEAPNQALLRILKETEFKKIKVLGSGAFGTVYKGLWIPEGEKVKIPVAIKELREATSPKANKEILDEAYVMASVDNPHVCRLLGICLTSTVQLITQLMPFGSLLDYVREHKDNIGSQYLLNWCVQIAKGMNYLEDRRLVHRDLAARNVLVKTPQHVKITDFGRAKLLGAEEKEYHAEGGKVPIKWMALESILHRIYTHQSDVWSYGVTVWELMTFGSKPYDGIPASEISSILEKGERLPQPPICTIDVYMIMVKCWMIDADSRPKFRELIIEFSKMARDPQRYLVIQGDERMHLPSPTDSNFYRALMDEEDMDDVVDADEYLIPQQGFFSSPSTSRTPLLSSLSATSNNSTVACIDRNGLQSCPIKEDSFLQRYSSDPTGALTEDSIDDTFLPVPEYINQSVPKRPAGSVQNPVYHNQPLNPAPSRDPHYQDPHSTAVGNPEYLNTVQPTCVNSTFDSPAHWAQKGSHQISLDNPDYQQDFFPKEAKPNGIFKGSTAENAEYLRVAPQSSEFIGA
In short: as §1

[3] = molecular target: Ba/F3 EGFR L858R/T790M/C797S mutants (Homo sapiens, UniProt P00533, T790M/C797S/L858R, cells depend on it); assay: CellTiter-Glo cell viability, Ba/F3 EGFR L858R/T790M/C797S cells; conditions: 72 hours, read-out: Ba/F3 EGFR mutant cell (IC50, nM) L/T/C
Chain of Ba/F3 EGFR L858R/T790M/C797S mutants (P00533 whole entry T790M/C797S/L858R): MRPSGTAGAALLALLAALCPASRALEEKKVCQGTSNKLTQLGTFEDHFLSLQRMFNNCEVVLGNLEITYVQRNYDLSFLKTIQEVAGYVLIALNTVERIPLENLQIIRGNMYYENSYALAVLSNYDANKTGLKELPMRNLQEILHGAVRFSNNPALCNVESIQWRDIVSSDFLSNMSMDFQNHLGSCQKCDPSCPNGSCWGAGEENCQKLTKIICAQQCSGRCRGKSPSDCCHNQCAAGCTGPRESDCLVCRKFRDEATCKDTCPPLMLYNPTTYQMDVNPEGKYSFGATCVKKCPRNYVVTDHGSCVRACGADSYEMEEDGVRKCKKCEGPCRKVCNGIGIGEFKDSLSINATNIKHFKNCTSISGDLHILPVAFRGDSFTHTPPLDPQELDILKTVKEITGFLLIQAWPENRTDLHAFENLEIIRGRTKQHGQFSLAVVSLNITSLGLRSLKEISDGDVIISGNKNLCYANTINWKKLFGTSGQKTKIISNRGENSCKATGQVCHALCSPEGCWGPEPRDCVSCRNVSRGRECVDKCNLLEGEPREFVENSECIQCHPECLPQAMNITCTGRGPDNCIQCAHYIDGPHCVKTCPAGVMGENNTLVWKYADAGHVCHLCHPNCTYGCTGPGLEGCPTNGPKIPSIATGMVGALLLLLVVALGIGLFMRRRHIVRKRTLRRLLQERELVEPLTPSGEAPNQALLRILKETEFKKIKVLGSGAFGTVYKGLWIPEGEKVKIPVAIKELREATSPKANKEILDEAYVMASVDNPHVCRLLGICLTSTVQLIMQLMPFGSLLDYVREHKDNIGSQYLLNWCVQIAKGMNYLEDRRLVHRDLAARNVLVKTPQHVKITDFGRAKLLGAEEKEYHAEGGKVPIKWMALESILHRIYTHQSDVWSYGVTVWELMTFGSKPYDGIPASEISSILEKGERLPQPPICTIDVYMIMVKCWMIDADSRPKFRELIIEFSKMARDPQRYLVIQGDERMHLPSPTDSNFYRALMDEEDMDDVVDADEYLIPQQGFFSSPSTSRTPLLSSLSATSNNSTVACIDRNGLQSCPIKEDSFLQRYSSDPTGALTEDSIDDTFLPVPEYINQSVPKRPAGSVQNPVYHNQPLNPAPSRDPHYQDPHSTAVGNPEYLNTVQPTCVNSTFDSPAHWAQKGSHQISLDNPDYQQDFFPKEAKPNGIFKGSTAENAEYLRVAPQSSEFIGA
In short: as §1

[4] = molecular target: Ba/F3 EGFR Del19/T790M mutants (Homo sapiens, UniProt P00533, T790M, cells depend on it, form not given); assay: CellTiter-Glo cell viability, Ba/F3 EGFR Del19/T790M cells; conditions: 72 hours, read-out: Ba/F3 EGFR mutant cell (IC50, nM) D/T
In short: as §1

[5] = molecular target: Ba/F3 EGFR Del19/T790M/C797S mutants (Homo sapiens, UniProt P00533, T790M/C797S, cells depend on it, form not given); assay: CellTiter-Glo cell viability, Ba/F3 EGFR Del19/T790M/C797S cells; conditions: 72 hours, read-out: Ba/F3 EGFR mutant cell (IC50, nM) D/T/C
Chain of Ba/F3 EGFR Del19/T790M/C797S mutants (P00533 with tags, fused parts or gaps DEL746-750/T790M/C797S, form open): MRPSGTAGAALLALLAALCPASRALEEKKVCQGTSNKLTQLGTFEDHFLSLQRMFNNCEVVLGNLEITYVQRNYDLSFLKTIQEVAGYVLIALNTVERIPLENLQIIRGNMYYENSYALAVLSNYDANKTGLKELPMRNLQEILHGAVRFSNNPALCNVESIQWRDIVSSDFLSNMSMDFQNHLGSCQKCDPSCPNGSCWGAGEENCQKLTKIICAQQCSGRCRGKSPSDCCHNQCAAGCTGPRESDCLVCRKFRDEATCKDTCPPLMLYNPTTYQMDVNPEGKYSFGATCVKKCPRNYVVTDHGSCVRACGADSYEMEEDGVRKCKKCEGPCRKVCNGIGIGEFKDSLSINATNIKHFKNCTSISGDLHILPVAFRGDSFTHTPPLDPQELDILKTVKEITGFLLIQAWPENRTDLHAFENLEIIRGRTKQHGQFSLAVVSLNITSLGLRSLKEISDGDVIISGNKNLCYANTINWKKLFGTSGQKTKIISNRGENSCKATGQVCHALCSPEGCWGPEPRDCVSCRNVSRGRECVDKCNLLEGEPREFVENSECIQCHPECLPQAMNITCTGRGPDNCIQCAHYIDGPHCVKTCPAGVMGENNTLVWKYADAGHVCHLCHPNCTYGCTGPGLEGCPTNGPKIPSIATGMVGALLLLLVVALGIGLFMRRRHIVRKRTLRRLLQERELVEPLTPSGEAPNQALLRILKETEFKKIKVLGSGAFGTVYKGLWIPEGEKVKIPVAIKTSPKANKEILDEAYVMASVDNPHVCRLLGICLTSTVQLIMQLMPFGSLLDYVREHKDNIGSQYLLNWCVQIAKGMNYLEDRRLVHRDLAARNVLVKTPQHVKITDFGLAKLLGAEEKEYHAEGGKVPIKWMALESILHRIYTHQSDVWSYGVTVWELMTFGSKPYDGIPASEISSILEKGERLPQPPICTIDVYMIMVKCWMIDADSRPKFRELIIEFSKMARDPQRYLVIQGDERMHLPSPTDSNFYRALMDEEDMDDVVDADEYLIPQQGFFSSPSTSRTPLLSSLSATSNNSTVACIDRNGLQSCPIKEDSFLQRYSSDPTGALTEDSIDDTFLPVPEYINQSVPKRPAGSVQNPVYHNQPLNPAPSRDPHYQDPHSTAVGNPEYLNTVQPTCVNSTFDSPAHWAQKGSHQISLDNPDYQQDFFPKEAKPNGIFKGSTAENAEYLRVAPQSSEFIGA
In short: as §1

Compound | GI50 (Ba/F3 EGFR Wild-type) | GI50 [1] | GI50 [2] | GI50 [3] | GI50 [4] | GI50 [5]
CCc1cc(Nc2ncc(Br)c(Nc3ccc4nccnc4c3N(C)S(C)(=O)=O)n2)c(OC)cc1N1CC2CCC1CN2C(C)C (stereo not drawn) [Example B30, N-(6-((5-bromo-2-((5-ethyl-4-(5-isopropyl-2,5-diazabicyclo[2.2.2]octan-2-yl)-2-methoxyphenyl)amino)pyrimidin-4-yl)amino)quinoxalin-5-yl)-N-methylmethanesulfonamide] | 233 nM | 11 nM | 23 nM | 71 nM | 7 nM | 2 nM
CCc1cc(Nc2ncc(Br)c(Nc3ccc4nccnc4c3N(C)S(C)(=O)=O)n2)c(OC)cc1N1CC2(CCN2C(C)C)C1 [Example B31, N-(6-((5-bromo-2-((5-ethyl-4-(1-isopropyl-1,6-diazaspiro[3.3]heptan-6-yl)-2-methoxyphenyl)amino)pyrimidin-4-yl)amino)quinoxalin-5-yl)-N-methylmethanesulfonamide] | 482 nM | 15 nM | 43 nM | 43 nM | 8 nM | 6 nM
CCc1cc(Nc2ncc(Br)c(Nc3ccc4nccnc4c3N(C)S(C)(=O)=O)n2)c(OC(C)C)cc1C1CCN(C)CC1 [Example B32, N-(6-((5-bromo-2-((5-ethyl-2-isopropoxy-4-(1-methylpiperidin-4-yl)phenyl)amino)pyrimidin-4-yl)amino)quinoxalin-5-yl)-N-methylmethanesulfonamide] | 851 nM | 172 nM | 200 nM | 83 nM | 154 nM | 29 nM
COc1cc(N2CCC(N3CCN(C)CC3)CC2)c(C)cc1Nc1ncc(Br)c(Nc2cccc(OC)c2NS(C)(=O)=O)n1 [Example C1, N-(2-((5-bromo-2-((2-methoxy-5-methyl-4-(4-(4-methylpiperazin-1-yl)piperidin-1-yl)phenyl)amino)pyrimidin-4-yl)amino)-6-methoxyphenyl)methanesulfonamide] | 408 nM | 18 nM | 63 nM | 12 nM | 6 nM | 13 nM
COc1ccc(Nc2nc(Nc3cc(C)c(N4CCC(N5CCN(C)CC5)CC4)cc3OC)ncc2Br)c(NS(C)(=O)=O)c1 [Example C2, N-(2-((5-bromo-2-((2-methoxy-5-methyl-4-(4-(4-methylpiperazin-1-yl)piperidin-1-yl)phenyl)amino)pyrimidin-4-yl)amino)-5-methoxyphenyl)methanesulfonamide] | 385 nM | 13 nM | 32 nM | 18 nM | 3 nM | 9 nM
COc1cc(N2CCC(N(C)C)CC2)c(C)cc1Nc1ncc(Br)c(Nc2cccc(OC)c2NS(C)(=O)=O)n1 [Example C3, N-(2-((5-bromo-2-((4-(4-(dimethylamino)piperidin-1-yl)-2-methoxy-5-methylphenyl)amino)pyrimidin-4-yl)amino)-6-methoxyphenyl)methanesulfonamide] | 288 nM | 60 nM | 113 nM | 23 nM | 17 nM | 92 nM
COc1ccc(Nc2nc(Nc3cc(C)c(N4CCC(N(C)C)CC4)cc3OC)ncc2Cl)c(NS(C)(=O)=O)c1 [Example C4, N-(2-((5-chloro-2-((4-(4-(dimethylamino)piperidin-1-yl)-2-methoxy-5-methylphenyl)amino)pyrimidin-4-yl)amino)-5-methoxyphenyl)methanesulfonamide] | 263 nM | 31 nM | 91 nM | 38 nM | 30 nM | 132 nM
COc1cc(N2CCC(N(C)C)CC2)c(C)cc1Nc1ncc(Br)c(Nc2cccc(OC)c2N(C)S(C)(=O)=O)n1 [Example C5, N-(2-((5-bromo-2-((4-(4-(dimethylamino)piperidin-1-yl)-2-methoxy-5-methylphenyl)amino)pyrimidin-4-yl)amino)-6-methoxyphenyl)-N-methylmethanesulfonamide] | 545 nM | 19 nM | 91 nM | 94 nM | 17 nM | 34 nM
